Measurements published in a melting point compilation (Tetko et al.; mined from patent text by program, amines drawn as free bases though some values may be those of a salt).
Residues, ends and D or L forms follow the SMILES beside them. *: point of attachment. Cbz = O=C(OCc1ccccc1)*

SMILES	melting point
CCN(CC)CCNC(=O)c1cc(Cl)c(N)cc1OCCSC	118 to 120 °C
O=C(O)C1CCc2c(c3ccccc3n2C(=O)c2cccs2)C1 (stereo unspecified)	180 to 182 °C
Cc1cc(C)c(-c2cc3cnc(N)nc3nc2NC(=O)NC(C)(C)C)c(C)c1	281 to 297 °C
COCCOCc1c(CN(C)CC(O)c2ccc(C#N)s2)sc2c(=O)c(C(=O)NCc3ccc(Cl)cc3)cn(C)c12 (stereo unspecified)	163 to 164 °C
CC1(C)CCCC(C)(C)N1CCOC(=O)C(Cc1ccccc1)(Cc1ccccc1)C(=O)OCCN1C(C)(C)CCCC1(C)C	77 to 78 °C
O=C1CC[C@@H](C(=O)N[C@@H](CSCc2ccccc2)C(=O)O)N1	181 to 183 °C
Cn1nc2ccc(Cl)nn2c1=O	176 to 177 °C
COC(=O)C1C(c2ccc(I)cc2)CC2CCC1N2C (stereo unspecified)	101 to 102 °C
COc1cc(NC(C)CCCN2C(=O)c3ccccc3C2=O)c2nccc(C=Cc3cccc(C(F)(F)F)c3)c2c1 (stereo unspecified)	154 to 156 °C
CC1(C)CCC(C)(C)c2cc3c(cc21)OCC=C3Cc1ccc(C(=O)O)cc1	200 to 201 °C
CSCC(C)(C)NC(=O)c1c(I)cccc1C(=O)Nc1ccc(-c2nnnn2C2CC2)cc1C	131 to 132 °C
NS(=O)(=O)c1ccc(-c2cnn(CC(F)(F)F)c(=O)c2-c2ccc(Cl)c(F)c2)cc1	180 to 183 °C
O=C(O)c1ccccc1Nc1ccc(CCCc2ccc(Cl)c(Cl)c2)cc1	120 to 126 °C
COc1ccc(OC)c2c1C[C@@H](O)[C@H](N1CCN(c3cccc(C(F)(F)F)c3)CC1)C2 (relative stereo)	184 to 187 °C
COc1cc2c(c3c1OC(C)(C)C3)C(c1cccc(N(C(C)=O)c3cccnc3)c1)=NC(C)(C)C2	157 to 158 °C
Cc1sc2nc3ccc(C#N)cn3c(=O)c2c1C	306 to 307 °C
COc1ccc(Oc2ccccc2)c(NS(C)(=O)=O)c1	110 to 111 °C
O=C(c1ccc(F)cc1)N1CCc2cc(S(=O)(=O)N3CC(c4ccccc4)NC3=O)ccc21 (stereo unspecified)	134 °C
CC(C)(C)c1cc(C=C2SC(=S)N(N)C2=O)ccc1O	> 225 °C
CC(C)CCc1c(-c2ccc(S(N)(=O)=O)cc2)cnn(-c2ccc(F)c(Cl)c2)c1=O	154 to 156 °C
COc1cc2c3c(n(C)c(=O)c2cc1OC)-c1cc2c(cc1C3=CCCCCCBr)OCO2	182 to 185 °C
CC(C)(C)c1cc(NC(=O)NCc2ccc(N)cc2)cc(C(C)(C)C)c1O	194 to 195 °C
CC(=O)NC[C@H]1CN(c2ccc(-c3nc(Cn4cccn4)cs3)c(F)c2)C(=O)O1	178 to 180 °C
Cc1ccc(OC(=O)c2cc3cc(S(=O)(=O)N(C)C)c(Cl)c(Cl)c3o2)cc1	176 to 177 °C

SMILES	melting point
CCCCn1nnc(-c2ccc(C(=O)NCC3CCCC3(C)C)cc2)n1 (stereo unspecified)	121 to 123 °C
CC1(C)[C@@H](CNC(=O)C2CCC(F)(F)CC2)CC[C@@]1(C)NCC(=O)N1C[C@@H](F)C[C@H]1C#N	193 to 195 °C
O=C(O)c1cn(-n2cnnc2)c2cc(F)c(F)cc2c1=O	270 °C
COc1ccc(OC)c(N2Cc3[nH]c(=O)[nH]c(=O)c3C2)c1	308 to 310 °C
ClCC1COC(Cc2ccc(Cl)cc2)(c2ccccc2)O1 (stereo unspecified)	65 °C
CS(=O)(=O)Nc1cc(Cl)c(C#N)cc1Sc1ccc(F)cc1F	159 to 162 °C
CCOC(=O)c1cn(CCO)c2nc(N3CCN(C)CC3)ncc2c1=O	197 to 199 °C
CCCCCCCCCCCCC1C=CC(Oc2ccc(C(=O)O)o2)=C2N=C3CCCCC3=C21 (stereo unspecified)	110 to 112 °C
CC(=O)Nc1ccc(CNc2n[nH]c3ncnc(Nc4cccc(Cl)c4)c23)cc1	> 260 °C
O=C(O)c1cc(NCc2c(F)c(F)c(C(F)(F)F)c(F)c2F)ccc1[N+](=O)[O-]	121 °C
O[C@@H]1CN=C(c2cccs2)O[C@H]1c1ccccc1 (racemic)	158 °C
Cc1nnc2n1-c1sc(C#CCn3c(=O)c4c(ncn4C)n(C)c3=O)cc1C(c1ccccc1Cl)=NC2	277 to 280 °C
COc1cc(O)ccc1/C=C/C(=O)CC(=O)CCc1ccc(O)cc1	131 to 135 °C
CN1CCC(c2c[nH]c3ccc(/C=C/S(N)(=O)=O)cc23)CC1	208 to 209 °C
CSc1nc(C#N)c(I)c(C(F)(F)F)n1	68 to 69 °C
O=C(CCCCCNC(=O)c1ccc2ccccc2c1)NO	96 to 98 °C
COC(=O)CCC(C)C1CCC2C3C(O)CC4CC(NC(=O)CNC(=O)OC(C)(C)C)CCC4(C)C3CC(O)C12C (stereo unspecified)	110 to 114 °C
CCOC(=O)Cc1sc(NC(=O)Nc2ccccc2)nc1-c1ccc(Cl)cc1	192 to 193 °C
CC(C)(C)OC(=O)NCCNCCNC(=O)OC(C)(C)C	69 to 71 °C
FC(F)(F)c1c[nH]c(-c2ccc(OCC3CO3)cc2)n1 (stereo unspecified)	152 to 154 °C
CC(=O)OCCN1CCN(CC#CC2=Cc3ccccc3Sc3ccc(Cl)cc32)CC1	96 to 99 °C
O=C1CCCCN1S(=O)(=O)c1ccc(N2CCCCCCC2)cc1	150 to 152 °C
Cc1ncoc1C(C)(O)c1ccccc1 (stereo unspecified)	102 to 104 °C
O=C(O)CCNc1ccc(-c2ccc3nnn(Cc4ccc5ncccc5c4)c3n2)cc1F	132 to 135 °C

SMILES	melting point
CC(C)C(O)(c1ccccc1)c1cc(Cl)ccc1O (stereo unspecified)	114 °C
CCC1Cc2ccc([N+](=O)[O-])cc2C=N1 (stereo unspecified)	61 to 62 °C
Cc1oc(-c2ccccc2)nc1CCOc1ccc(CC(C)(C)C(=O)O)cc1	133 to 134 °C
C=CCOC(=O)N1CCC[C@@H](OC)[C@@H]1CC(=O)Cn1cnc2cc(Cl)c(Oc3ccc(Cl)cc3)cc2c1=O (relative stereo)	138 to 141 °C
N#Cc1ccc(-n2c(=O)cc(C(F)(F)F)n(N)c2=O)cc1O	> 230 °C
Cc1cc(O)cc(Br)c1C	98 to 99 °C
CC(C)N1C(=O)c2cnc(-c3ccccc3)nc2Nc2ccccc21	195 to 196 °C
CC(=O)Oc1c(C)c(C)c2c(c1C)CCC(C)(C(=O)N1CCN(c3cc(N4CCCC4)nc(N4CCCC4)n3)CC1)O2 (stereo unspecified)	191 to 192 °C
CCCCc1nc(O)cc(CCl)n1	102 to 104 °C
O=[N+]([O-])c1c(Br)nn(Cc2ccccc2)c1NCc1ccccc1	103 °C
C/C(=C(\C#N)C(N)=S)N1CCCCC1	161 to 166 °C
COc1cc(COc2nn(-c3ccccc3)cc2C=O)ccc1OCc1nc(-c2ccco2)oc1C	137 to 138 °C
CN(C)S(=O)(=O)n1cnc(S(=O)(=O)NCc2ccc(Cl)cc2)c1	171 to 173 °C
CC(C)c1cc(OCCOCc2ccccc2)cc2c1C(=O)N(CSc1ccccc1)S2(=O)=O	98 to 99 °C
CCCCCCCCCCCC#Cc1ccc(C=CC(=O)O)cc1	156 to 157 °C
CS(=O)(=O)CS(=O)(=O)OCCCl	60 to 62 °C
CC(C)(C)c1ccc2c(C=O)c3ccccc3c(Cl)c2c1	143 to 147 °C
CC1=C(C(=O)O)C(c2cccc([N+](=O)[O-])c2)N(C(=O)N(C)C)C(=O)N1 (stereo unspecified)	193 to 195 °C
O=C(c1ccccc1)c1ccc(S)cc1	72 to 75 °C
COc1ccc(C=CC(=O)Nc2ccncc2)c2c1OC1(CCCC1)C2	124 to 128 °C
N#CC1c2ccccc2CSc2ccccc21 (stereo unspecified)	128 to 130 °C
COC(=O)c1ccc(OCCNC(=O)OCc2ccccc2)c(Cl)c1	81 °C
Cc1ccc(C)c2c(=O)n(CCCN3CC=C(c4ccc(Cl)cc4)CC3)c(=O)[nH]c12	212 to 220 °C
Cn1ncc2c(=O)n3c(nc21)SCC3	257 to 258 °C

SMILES	melting point
CCOC(=O)c1cc(NCc2ccccc2)c(Nc2ccccc2)c(S(=O)(=O)Nc2ccccc2)c1	166 to 167 °C
CS(=O)c1cc(-c2ccc(Oc3ccccc3)cc2)nn1C(N)=O (stereo unspecified)	92 °C
CCCCSc1nnc(-c2ccc([N+](=O)[O-])cc2)s1	140 °C
OCCn1cnc2c(O)nc3ccccc3c21	> 300 °C
NC(=O)[C@@H]1C[C@@H]2C[C@@H]2N1C(=O)[C@@H](NC(=O)OCc1ccccc1)C12CC3CC(CC(O)(C3)C1)C2	105 to 106 °C
Cc1sc(-c2ccccc2)nc1COc1ccc(Cn2cc(CC(=O)O)c(-c3ccccc3)n2)cn1	140 to 141 °C
CSc1cccc(SC)c1S(N)(=O)=O	197 to 199 °C
COc1ccc(CC(=O)NCCc2ccc([N+](=O)[O-])cc2)cc1	109 to 110 °C
CC(C)(C)c1cc2c(Cl)ncnc2o1	72 to 74 °C
CCOC(=O)CNC(=O)Oc1cccc2ccc(C)nc12	118 to 120 °C
COc1cc(Cc2cnc(CCCOc3cccc(CN4CCCCC4)c3)[nH]c2=O)ccn1	93 to 94 °C
Cc1cc([N+](=O)[O-])c(NC(C)C)c([N+](=O)[O-])c1C	69 to 70 °C
COc1ccc(C(=O)c2ccccc2F)c(O)c1Br	127 to 129 °C
COC(=O)CC1CC(CCc2c(-c3ccc(F)cc3)c(-c3ccccc3)c(C(=O)Nc3ccc(C(=O)OC)cn3)n2C(C)C)OC(C)(C)O1 (stereo unspecified)	77 to 84 °C
Cc1cc2c(=O)c(-c3nnnn3C)cn(C)c2cc1C	245 to 246 °C
CCN1CCCC1CNc1ccc(-c2ccnc(Nc3cc(OC)c(OC)c(OC)c3)n2)cn1 (stereo unspecified)	81 to 82 °C
O=C(O)C(=O)c1ccc(OCC(=O)C2CCCCCCC2)cc1	109 to 110 °C
CS(=O)(=O)Nc1ccc(C(N)=O)cc1Sc1ccc(F)cc1F	176 to 178 °C
Cn1cncc1-c1c(C(CC#N)c2ccc(Cl)cc2)ccc2c1c(-c1cccc(Cl)c1)cc(=O)n2C (stereo unspecified)	151 °C
Cc1ccc(NCc2ccc(/C=C/C(=O)NO)cc2)cc1Nc1nccc(-c2cccnc2)n1	201 to 205 °C
Cc1cnc2n1-c1ccc(Cl)cc1C(c1ccccc1)=NC2	190 to 191 °C
CCNC(=O)C1CCCN1C(=O)C(C)NC(=O)C(C)NC(=O)OCc1ccccc1 (stereo not drawn) (Cbz-Ala-Ala-Pro-NHEt; configuration not given here)	139 to 140 °C
O=[N+]([O-])c1ccc(Oc2ccc(C(F)(F)F)cc2Cl)cc1[N+](=O)[O-]	80 to 81 °C
COc1cccc(NC(=O)NCc2ccc3c(c2)C(=O)N(C2CCC(=O)NC2=O)C3=O)c1 (stereo unspecified)	323 to 325 °C
